Experimental data as given in US9371337B2, “β-lactamase inhibitors” (The Regents of the University of California, priority 2011, dated 2016).
Several values for one entry are separate records, joined by “and”; a condition that tells them apart may be missing. Equal values may be shown once. Read-outs that look alike come from different tables or passages of the source.

Legend:
[1] = target: T1, AmpC β-lactamase (Escherichia coli, UniProt P00811); assay: biochemical; format: biochemical; details: for improved affinity compared to CR157: ratio of Ki values
T1 construct: made in house
Procedure: FIG. 18. Representative IC50 curves. […] IC50 curves were obtained by measuring rates (in duplicates) at different inhibitor concentrations (x-axis) and by determining the residual activity (y-axis, in percentage). IC50 values were determined by non-linear regression and Ki values calculated using GraphPad software assuming competitive inhibition.
Sulfonamidomethaneboronic acids were dissolved in 100% DMSO at a concentration of 100 mM; more diluted stocks were prepared as necessary. […] The enzyme was expressed and purified as described (Usher, K. C. et al., Biochemistry 1998, 37, 16082-16092) and CENTA was purchased from Tydock Pharma.
Kinetic measurements were run at room temperature in 50 mM sodium-cacodylate pH 6.5 in the presence of 0.01% Triton-X to prevent non-specific inhibition via compound aggregation. […] (Kettner, C. A. and Shenvi, A. B., J. Biol. Chem. 1984, 259, 15106-15114) Reactions were performed in 1 mL cuvettes with 60 μM CENTA and initiated by adding 1.2 nM enzyme. […] (Weston, G. S. et al., J. Med. Chem. 1998, 41, 4577-4586) The first 180 sec of each reaction were used to measure initial rates. IC50 values were obtained by fitting binding data to a sigmoidal dose-response equation using GraphPad Prism (GraphPad software, Inc). Ki values were determined by the use of Cheng-Prusoff equation. (Cheng, Y. and Prusoff, W. H., Biochem. Pharmacol. 1973, 22, 3099-3108)

[2] = target: CTX-M-9 β-lactamase (Escherichia coli, UniProt Q9L5C8); assay: biochemical; format: biochemical; details: for Selectivity vs AmpC (comparison of IC50 values): Table 4h, CTX-M-9 vs AmpC; for potency estimated from few doses: read-out: IC50 (Estimated from single concentration measurement); for inhibition at 16 µM: read-out: Percentage inhibition with 16 μM inhibitor
Procedure: Reactions were initiated by the addition of 0.3 nM enzyme and monitored at 405 nm.
(§1) To assess the selectivity of the new molecules we determined Ki values against three common serine proteases, Trypsin, Elastase and α-Chymotrypsin, as well as that of a class A β-lactamase, CTX-M-9 (Table 10) (Pouvreau L, et al. (1998), FEBS Lett 423:167-172; Del Mar E G, et al. (1980), Biochemistry 19:468-472; Rodriguez-Martinez J A, et al. (2009), Biotechnol Lett 31:883-887; Chen Y, et al. (2005), J Mol Biol 348:349-362).

[3] = target: T2, α-chymotrypsin (bovine pancreatic) (Bos taurus, UniProt P00766); assay: α-Chymotrypsin inhibition; format: biochemical; details: for activity at 100 µM: Table 4b, 100 μM inhibitor, read-out: Percentage activity with 100 μM inhibitor; for potency estimated from few doses: Table 4e, read-out: IC50 (Estimated from single concentration measurement); for Ki: Table 10, α-Chymotrypsin; for Selectivity vs AmpC (comparison of IC50 values): Table 4h, Chymotrypsin vs AmpC; for inhibition at 100 µM: read-out: Percentage inhibition with 100 μM inhibitor
T2 construct: purchased Sigma-Aldrich
Procedure: α-Chymotrypsin assays were performed in 50 mM Tris buffer pH 7.5 with 0.01% Triton-X. Inhibitor and 0.001 mg/mL enzyme were incubated at their final concentration for 10 min before the reaction was initiated by the addition of 200 μM N-succinyl-Ala-Ala-Pro-Phe p-nitroanilide and monitored at 410 nm.
as §1

[4] = target: T3, Trypsin (UniProt P00760); assay: Trypsin inhibition; format: biochemical; details: Table 10, Trypsin
T3 construct: IC50 (Estimated from single concentration measurement); Ki
T3 sequence (P00760 1-246): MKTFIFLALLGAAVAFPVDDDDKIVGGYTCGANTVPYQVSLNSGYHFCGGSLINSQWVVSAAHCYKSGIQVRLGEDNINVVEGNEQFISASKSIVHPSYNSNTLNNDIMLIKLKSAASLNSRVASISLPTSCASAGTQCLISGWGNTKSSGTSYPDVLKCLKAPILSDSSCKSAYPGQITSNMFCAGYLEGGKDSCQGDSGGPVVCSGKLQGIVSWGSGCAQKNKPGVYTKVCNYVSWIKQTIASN
From the text: as §1

[5] = test system: Elastase; assay: Elastase inhibition; format: biochemical; details: Table 4h, Elastase vs AmpC
From the text: as §1

[6] = test system: clinical strains resistant to third-generation cephalosporins; assay: MIC distribution of third-generation cephalosporins alone or with compounds over clinical strains; format: cell-based; details: for clinical isolates for which MICs dropped into the susceptible range (MICs≦1 μg/mL): cephalosporins combined with the compound; for MIC 25% percentile / MIC 75% percentile: third-generation cephalosporins in combination with the compound
Procedure: The anti-resistance activity of inhibitors was investigated by the determination of the minimum inhibitory concentrations (MICs) of the β-lactam/inhibitor combination necessary to inhibit the growth of clinically-isolated bacteria resistant to third-generation cephalosporins via expression of class A or class C β-lactamases (Table 6).
Susceptibility testing was performed and interpreted following the guidelines of CLSI. (Clinical and Laboratory Standards Institute, Performance standards for antimicrobial susceptibility testing, 20th Informational Supplement, M100-S20 2010) The compounds were dissolved in 50% DMSO, and dilutions were performed using Muller-Hinton medium. An adequate final concentration was obtained to determine the minimum inhibitory concentrations (MICs). The concentration of DMSO was maintained below 5%. The inhibitors were tested for synergy with the third-generation β-lactams ceftazidime and cefotaxime against several clinical bacteria. The ratio of β-lactams to inhibitors was 1:4. Each value reported reflects the average of three independent experiments. […] The Friedman's test and the Wilcoxon signed rank test were used to compare MIC values. Statistical significance was established at p<0.05.

[7] = target: T1, AmpC β-lactamase; format: biochemical; details: for type of inhibition: Lineweaver-Burk analysis, competition with substrate CENTA; for time dependence of inhibition (incubation effect, off-rate): enzyme incubation and dilution experiments
[8] = target: T3, Trypsin; assay: Trypsin inhibition; format: biochemical; details: for Percentage activity with 100 μM inhibitor: Table 4b; for Percentage inhibition with 100 μM inhibitor: Table 4c; for potency estimated from few doses: read-out: IC50 (Estimated from single concentration measurement), Table 4e
[9] = test system: Trypsin; assay: Trypsin inhibition; format: biochemical; details: Table 4h, Trypsin vs AmpC
[10] = Ki (from multi- or single concentration measurements), Table 4g
[11] = Table 8, read-out: Ki vs CTX-M-9

T1 sequence (P00811 20-377): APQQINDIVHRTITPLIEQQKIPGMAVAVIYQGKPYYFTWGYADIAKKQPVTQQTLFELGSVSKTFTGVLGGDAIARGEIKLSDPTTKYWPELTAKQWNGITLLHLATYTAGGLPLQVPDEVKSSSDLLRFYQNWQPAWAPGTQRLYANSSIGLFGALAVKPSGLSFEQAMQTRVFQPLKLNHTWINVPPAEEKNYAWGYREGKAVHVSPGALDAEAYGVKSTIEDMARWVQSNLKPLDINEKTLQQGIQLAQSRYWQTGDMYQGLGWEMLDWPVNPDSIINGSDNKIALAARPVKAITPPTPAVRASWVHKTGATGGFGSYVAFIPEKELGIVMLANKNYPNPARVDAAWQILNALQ
Sequence of CTX-M-9 β-lactamase (Q9L5C8 29-291): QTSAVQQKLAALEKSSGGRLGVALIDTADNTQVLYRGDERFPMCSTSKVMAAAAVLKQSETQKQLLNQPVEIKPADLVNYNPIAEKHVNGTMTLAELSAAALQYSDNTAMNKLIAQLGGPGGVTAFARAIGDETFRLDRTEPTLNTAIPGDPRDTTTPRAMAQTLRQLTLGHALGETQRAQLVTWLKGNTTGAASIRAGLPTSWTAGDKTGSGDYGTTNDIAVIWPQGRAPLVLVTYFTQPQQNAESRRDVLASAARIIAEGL

## O=C(O)c1cccc(CS(=O)(=O)NCB(O)O)c1 [CR167, [3-(Carboxyphenyl)methanesulfonylamino]methaneboronic acid]
[1]
  IC50: 0.0065 µM
[1]; Ki
  Ki: 0.8 to 1.3 nM and 1.3 nM
[1]; [10]
  Ki: 1.3 nM
[1]; Ki Vs AmpC, Table 7
  Ki: 1.3 nM
[1]; Ki vs AmpC, Table 8
  Ki: 1.3 nM
[1]; Ki, Table 5
  Ki: 1.3 nM
[1]; Ki, Table 10, AmpC
  Ki: 1.3 nM
[1]; Table 5
  Ligand efficiency: 0.66
[2]
  IC50: 0.125 µM
  Selectivity vs AmpC (comparison of IC50 values): 19
  potency estimated from few doses: 0.162 µM
  inhibition at 16 µM: 99%
[2]; ratio of Ki values
  selectivity towards AmpC versus CTX-M-9 β-lactamase: ~30 fold
[2]; read-out: Ki
  Ki: 0.045 µM
[3]
  activity at 100 µM: 99%
  potency estimated from few doses: 9900 µM
  Ki: 2460 µM
  Selectivity vs AmpC (comparison of IC50 values): 1523077
  inhibition at 100 µM: 1%
[4]
  Ki: 350 µM
[5]
  Selectivity vs AmpC (comparison of IC50 values): 22139
[6]
  clinical isolates for which MICs dropped into the susceptible range (MICs≦1 μg/mL): 75%
  MIC 25% percentile: 0.5 µg/mL
  MIC 75% percentile: 1.5 µg/mL
[7]
  type of inhibition: competitive
  time dependence of inhibition (incubation effect, off-rate): incubation effect owing to slow off-rates
[8]
  Percentage activity with 100 μM inhibitor: 95
  Percentage inhibition with 100 μM inhibitor: 5
  potency estimated from few doses: 1900 µM
[9]
  Selectivity vs AmpC (comparison of IC50 values): 292308

## O=S(=O)(NCB(O)O)c1ccc(-c2nn[nH]n2)cc1Cl [CR190, [2-chloro-4-(3-tetrazol-5-yl)benzensulfonylamino]methaneboronic acid]
[1]
  IC50: 0.0016 µM
  improved affinity compared to CR157: 6 fold
[1]; [10]
  Ki: 0.2 nM
[1]; Ki Vs AmpC, Table 7
  Ki: 0.2 nM
[1]; Ki vs AmpC, Table 8
  Ki: 0.2 nM
[1]; Ki, Table 5
  Ki: 0.2 nM
[1]; Ki, Table 10, AmpC
  Ki: 0.2 nM
[1]; Ki, running text and FIG. 18, substrate CENTA 105 μM
  Ki: 0.2 nM
[1]; Table 5
  Ligand efficiency: 0.65
[2]
  IC50: 4 µM
  Selectivity vs AmpC (comparison of IC50 values): 2346
  potency estimated from few doses: 4 µM
  inhibition at 16 µM: 81%
[2]; [11]
  Ki: 1.4 µM
[3]
  activity at 100 µM: 85%
  potency estimated from few doses: 567 µM
  Ki: 141 µM
  Selectivity vs AmpC (comparison of IC50 values): 354167
  inhibition at 100 µM: 15%
[4]
  Ki: 350 µM
[5]
  Selectivity vs AmpC (comparison of IC50 values): 30784
[6]
  clinical isolates for which MICs dropped into the susceptible range (MICs≦1 μg/mL): 50%
  MIC 25% percentile: 0.5 µg/mL
  MIC 75% percentile: 2.0 µg/mL
other
  melting point: 110 to 113 °C (dec.)
[7]
  type of inhibition: competitive
  time dependence of inhibition (incubation effect, off-rate): slow off-rate
[8]
  Percentage activity with 100 μM inhibitor: 95
  Percentage inhibition with 100 μM inhibitor: 5
  potency estimated from few doses: 1900 µM
[9]
  Selectivity vs AmpC (comparison of IC50 values): 1187500

## O=S(=O)(NCB(O)O)c1ccc(-c2nn[nH]n2)c(Cl)c1 [CR191, [3-chloro-4-(3-tetrazol-5-yl)benzensulfonylamino]methaneboronic acid]
[1]
  IC50: 0.0016 µM
[1]; Ki
  Ki: 3 nM
[1]; [10]
  Ki: 3 nM
[1]; Ki Vs AmpC, Table 7
  Ki: 3 nM
[1]; Ki vs AmpC, Table 8
  Ki: 3 nM
[1]; Ki, Table 5
  Ki: 3 nM
[1]; Ki, Table 10, AmpC
  Ki: 3 nM
[1]; Table 5
  Ligand efficiency: 0.57
[2]
  IC50: 7 µM
  potency estimated from few doses: 7 µM
  inhibition at 16 µM: 70%
[2]; [11]
  Ki: 2.5 µM
[3]
  activity at 100 µM: 85%
  potency estimated from few doses: 567 µM
  Ki: 141 µM
  inhibition at 100 µM: 15%
[4]
  Ki: 350 µM
[6]
  clinical isolates for which MICs dropped into the susceptible range (MICs≦1 μg/mL): 25%
  MIC 25% percentile: 1.0 µg/mL
  MIC 75% percentile: 4.0 µg/mL
other
  melting point: 195 to 198 °C (dec.)
[7]
  type of inhibition: competitive
  time dependence of inhibition (incubation effect, off-rate): slow off-rate
[8]
  Percentage activity with 100 μM inhibitor: 95
  Percentage inhibition with 100 μM inhibitor: 5
  potency estimated from few doses: 1900 µM

## O=S(=O)(NCB(O)O)c1ccc(-c2nnn[nH]2)cc1C(F)(F)F [CR192, [4-(3-tetrazol-5-yl)-2-trifluoromethyl-benzensulfonylamino]methaneboronic acid]
[1]
  IC50: 0.0004 µM
  improved affinity compared to CR157: 24 fold
[1]; 50 pM AmpC, 500 pM inhibitor, with or without 5 minutes pre-incubation
  time until substrate hydrolysis rates converge (equilibrium): 10 to 15 min
[1]; Table 4g, read-out: Ki (from multi- or single concentration measurements)
  Ki: 0.05 nM
[1]; Table 5
  Ligand efficiency: 0.60
[1]; Table 5, read-out: Ki
  Ki: 0.05 nM
[1]; Table 7, read-out: Ki Vs AmpC
  Ki: 0.05 nM
[1]; Table 8, read-out: Ki vs AmpC
  Ki: 0.05 nM
[1]; Table 10, AmpC, read-out: Ki
  Ki: 0.05 nM
[1]; running text and FIG. 18, substrate CENTA 105 μM, read-out: Ki
  Ki: 0.05 nM
[2]
  IC50: 5 µM
  Selectivity vs AmpC (comparison of IC50 values): 11948
  potency estimated from few doses: 5 µM
  inhibition at 16 µM: 77%
[2]; [11]
  Ki: 1.8 µM
[3]
  activity at 100 µM: 85%
  potency estimated from few doses: 567 µM
  Ki: 141 µM
  Selectivity vs AmpC (comparison of IC50 values): 1416667
  inhibition at 100 µM: 15%
[4]
  Ki: 442 µM
[5]
  Selectivity vs AmpC (comparison of IC50 values): 34091
[6]
  clinical isolates for which MICs dropped into the susceptible range (MICs≦1 μg/mL): 50%
  MIC 25% percentile: 1.0 µg/mL
  MIC 75% percentile: 2.0 µg/mL
[7]
  type of inhibition: competitive
  time dependence of inhibition (incubation effect, off-rate): slow off-rate
[8]
  Percentage activity with 100 μM inhibitor: 96
  Percentage inhibition with 100 μM inhibitor: 4
  potency estimated from few doses: 2400 µM
[9]
  Selectivity vs AmpC (comparison of IC50 values): 6000000

## O=S(=O)(Cc1cccs1)NCB(O)O [Compound 10]
other
  melting point: 185 to 188 °C
